Results taken from patent US20010004643A1, “Pharmaceutical composition with sotalol combination and their use in treatment of cardiac ailments” (priority 1999, published 2001).
“Also recorded” adds a separate entry of the source. Marks after values point to notes of the source that are not given here.

Columns and labels:
[1] = test system: beta adrenergic blockade, isolated right auricle preparation of rabbit; assay: Beta blocking potency (pA2 against isoprenaline) in isolated rabbit right auricle; conditions: isoprenaline chronotropic response, Schild's plot
Method: Estimation of the beta blockade of various ratios of d- and l- isomers of sotalol was carried out in the isolated right auricle preparation of rabbit. The spontaneously beating right atrium was dissected and mounted in a 20 ml tissue bath. The resting tension on the atria was set at 1 g. The contractions were recorded using a force displacement transducer. The spontaneous contractions of the right atria were recorded isometrically and the heart rate was obtained as a derived parameter using a ratemeter that gave the output in beats per minute. Six different ratios of d and l isomers were investigated (1:1, 2:1, 3:1, 4:1, 5:1 and 1:0). Dose-response-curves (DRC) for isoprenaline in the isolated atria, using the chronotropic response were determined by cumulative addition of isoprenaline. The pA2 values of each of the ratios were estimated using the classical Schild's plot (Schild, 1957) and the values are shown in Table 1.

[2] = test system: ouabain induced arrhythmia (VT, VF, mortality); assay: Ouabain induced arrhythmia model in guinea pig; assay type: in vivo; conditions: for % INCIDENCE OF MORTALITY: mortality at 60 min; for deaths due to conduction block (60 min), actual incidence (value in parenthesis) / deaths due to tachyarrhythmia (60 min), actual incidence (value in parenthesis): number of animals; for % INCIDENCE OF VF / % INCIDENCE OF VT: ouabain 240 μg/kg in three doses, observed one hour; for DEATHS DUE TO CONDUCTION BLOCK (60 MIN) Percentage / DEATHS DUE TO TACHYARRHYTHMIA (60 MIN) Percentage: percentage deaths out of total mortality
Description: Method: Guinea pigs (Dunken Hartley) of either sex weighing between 400 and 500 g were used for the study. The animals were anesthetized with urethane (1.25 g/kg. i.p.). The left common carotid artery and left jugular vein were cannulated for arterial blood pressure monitoring and intravenous access respectively. Lead II electrocardiogram, arterial blood pressure, mean arterial blood pressure (MABP), heart rate were monitored throughout the experiment.
After initial surgical preparations and allowing 30 minutes for the animal to stabilise the first dose of ouabain (90 μg/kg) was administered over a period of one minute. After the interval of thirty minutes, second dose of ouabain (60 μg/kg) was administered over a period of one minute. One minute after this dose, 0.5 ml saline (in control experiments) was administered over a period of one minute. After an interval of 10 minutes a third dose of ouabain (90 μg/kg) was administered over a period of one minute. […] The test compounds were administered to animals in test group in place of saline to evaluate their antiarrhythmic potential. From the ECG recordings, the incidence of VT, VF and mortality were recorded. The doses of ratios of sotalol isomers studied were 0.1, 0.5 and 2.5 mg/kg.
Interpretation of ECG recordings: Minor disturbance in rhythm was not considered while evaluating ventricular tachyarrhythmias. A run of more than 3 ventricular ectopic beats having wide QRS complexes associated with partial haemodynamic collapse was considered as Ventricular Tachycardia (VT). Total morphological irregularity of repetitive complexes for at least six cycles associated with complete haemodynamic collapse was considered as Ventricular Fibrillation (VF). Successful arrhythmia protection was defined as no occurrence of VT and VF from the injection of saline/test drug till the end of the experiment.
Statistics: Chi square test with continuity correction at 95% confidence limit was applied to find out the statistical significance between control and test groups for incidence of VT, VF and mortality. Whenever, any of the value in a cell was less than 5, Fischer's exact probability test was used.
Results: Different ratios of sotalol in the dose range from 0.02 mg/kg to 12.5 mg/kg were studied in individual groups of animals. In all 18 groups were studied and at least 6 animals were used in each group. In control animals ouabain 240 μg/kg in three divided doses induced reproducible ventricular tachyarrhythmias in guinea pigs. It was observed that ventricular arrhythmias appeared after the administration of the third dose. Guinea pigs which responded early i.e. before or within 1 min. of administration of the second dose, were considered early responders and were not included in the study. […] In the study, control experiments were carried out randomly interspersed in test groups. Among the 42 control animals the incidence of VT was 81%, incidence of VF was 71.4% and the incidence of mortality at 60 minutes was 61.9%.

[3] = 0.5 mg/kg, number of animals of the group
[4] = 2.5 mg/kg, number of animals of the group
[5] = guinea pig, in vivo, listed as 2:1 ratio (d:l)

CC(C)NCC(O)c1ccc(NS(C)(=O)=O)cc1 (stereo not shown) [2:1 RATIO, N-[4-[1-hydroxy-2-[(1-methylethyl)amino]ethyl]phenyl] methane sulfonamide]
pA2 Mean ([1]; listed as 2:1): 6.28
protection against VF ([2]; 0.5 mg/kg): some protection, it was not complete
actual incidence of mortality (value in parenthesis) ([2]; 0.5 mg/kg, 60 min, number of animals of the group): (3)
protection against ouabain induced VT ([2]; 0.5 mg/kg, listed as 2:1 ratio (d:l)): some protection, it was not significant
% INCIDENCE OF MORTALITY ([2]; 0.5 mg/kg): 50.0%
deaths due to conduction block (60 min), actual incidence (value in parenthesis) ([2]; 0.5 mg/kg): (3)
deaths due to tachyarrhythmia (60 min), actual incidence (value in parenthesis) ([2]; 0.5 mg/kg): (0)
actual incidence of VF (value in parenthesis) [2, 3]: (2)
actual incidence of VT (value in parenthesis) [2, 3]: (3)
% INCIDENCE OF VF ([2]; 0.5 mg/kg): 33.3%
% INCIDENCE OF VT ([2]; 0.5 mg/kg): 50.0%
DEATHS DUE TO CONDUCTION BLOCK (60 MIN) Percentage ([2]; 0.5 mg/kg): 100.0%
DEATHS DUE TO TACHYARRHYTHMIA (60 MIN) Percentage ([2]; 0.5 mg/kg): 00.0%
protection against mortality ([2]; 2.5 mg/kg): protected significantly
protection from deaths due to tachyarrhythmias ([2]; 2.5 mg/kg): completely protected
protection against arrhythmias (VT and VF) ([2]; 2.5 mg/kg, listed as 2:1): completely protects; also recorded: complete protection
% INCIDENCE OF MORTALITY ([2]; 2.5 mg/kg): 16.6%
% INCIDENCE OF MORTALITY ([2]; 2.5 mg/kg, listed as 2:1): 16.6%
deaths due to conduction block (60 min), actual incidence (value in parenthesis) ([2]; 2.5 mg/kg): (1)
deaths due to tachyarrhythmia (60 min), actual incidence (value in parenthesis) ([2]; 2.5 mg/kg): (0)
actual incidence of VF (value in parenthesis) [2, 4]: (0)*
actual incidence of VT (value in parenthesis) [2, 4]: (0)*
% INCIDENCE OF VF ([2]; 2.5 mg/kg): 00.0%
% INCIDENCE OF VT ([2]; 2.5 mg/kg): 00.0%
DEATHS DUE TO CONDUCTION BLOCK (60 MIN) Percentage ([2]; 2.5 mg/kg): 100.0%
DEATHS DUE TO TACHYARRHYTHMIA (60 MIN) Percentage ([2]; 2.5 mg/kg): 00.0%
dose at which complete protection against VT was observed [2, 5]: 2.5 mg/kg
dose that completely protected against VF [2, 5]: 2.5 mg/kg
cause of deaths ([2]; no dose stated): due to conduction abnormalities
mortality compared with control groups ([2]; no dose stated): less than that of control groups

CC(C)NCC(O)c1ccc(NS(C)(=O)=O)cc1 (stereo not shown) [5:1, N-[4-[1-hydroxy-2-[(1-methylethyl)amino]ethyl]phenyl] methane sulfonamide]
pA2 Mean [1]: 5.85
